Laboratory results reported in article PMC11351612, “Heteronuclear Complexes with Promising Anticancer Activity against Colon Cancer” (Biomedicines, 2024).
Where two headings read alike, the source gives them in different places.

Columns and labels:
[1] = system: Caco-2/TC7 cells; assay: MTT cell proliferation assay, Caco-2/TC7; assay type: cell-based, human; conditions: 72 h, mean ± SE of at least three determinations
Procedure: (§1) Cell culture. Human colon cancer Caco-2 cells (PD7 and TC7 clones) were kindly provided by Dr. Edith Brot-Laroche (Université Pierre et Marie Curie-Paris 6, UMR S 872, Les Cordeliers, Lyon, France) and grown in Dulbecco’s Modified Eagles medium (DMEM) (Gibco Invitrogen, Paisley, UK) supplemented with 20% foetal bovine serum (FBS), 1% non-essential amino acids, 1% streptomycin (1000 μg/mL), 1% penicillin (1000 μg/mL), and 1% amphotericin (250 U/mL). Caco-2 cells were maintained at 37 °C in a humidified atmosphere at 5% CO2.
(§2) Cell proliferation assay. Cell proliferation was measured using the 3-(4,5-dimethyl-2-thiazoyl)-2,5-diphenyltetrazolium bromide (MTT) assay, as previously described. Caco-2/TC7 cells were seeded in a 96-well plate at a density of 4000 cells/well and grown for 24 h before being treated with each complex or DMSO (used as control). After 72 h of incubation with the complexes, 10 μL of MTT (5 mg/mL) were added and incubation was continued at 37 °C for 3 h. Inversion removed the medium and 100 μL of DMSO were added to each well. Absorbance at 560 nm, proportional to many living cells, was measured by spectrophotometry (SPECTROstar Nano, BMG LABTECH, Ortenberg, Germany) and converted into a percentage (%) of growth inhibition.
(§3) The antiproliferative effects of the mononuclear and heteropolinuclear complexes were tested on two different Caco-2 cancer cell lines (PD7 and […]). […] Caco-2 cells of both PD7 and TC7 clones were exposed to increasing concentrations of the assayed compounds through dose–response/cell viability analysis. The results in terms of the IC50 parameter (Table 4) were obtained by using the MTT protocol.

[2] = system: Caco-2/PD7 cells; assay: Annexin V/propidium iodide apoptosis assay, Caco-2/PD7; assay type: cell-based, human; conditions: Caco-2/PD7, annexin V/PI
Procedure: Study of cell death. After the appropriate incubation, cells were collected and stained with annexin V-FTIC, according to the manufacturer’s instructions. A negative control was prepared, containing unreacted cells to define the basal level of apoptotic and necrotic or dead cells. After incubation, the cells were transferred to flow-cytometry tubes and washed twice with temperate phosphate-buffered saline (PBS), suspended in 100 μL annexin V binding buffer (10 mM Hepes/NaOH, pH 7.4, 140 mM NaCl, 2.5 mM CaCl2), then 5 μL of annexin V-FITC, and 5 μL of PI was added to each 100 μL of cell suspension. After incubation for 15 min at room temperature in the dark, 400 μL of 1× annexin binding buffer was added and analysed by flow cytometry within one hour. The signal intensity was measured using a FACSARIA BD and analysed using FASCDIVA BD.
This inhibition of apoptosis produces a fast growth and proliferation of cancerous cells. The population of early and late apoptotic cells increased to 35% after treatment with complex 1 in comparison with the vehicle-treated cells (12%). […] Additionally, the effect observed after treating the cells with a dosage equal to the IC50 concentration is time-dependent. […]

[3] = system: Caco-2/PD7 cells; assay: MTT cell proliferation assay, Caco-2/PD7; assay type: cell-based, human; conditions: MTT, 72 h; mean ± SE of at least three determinations
Procedure: as §1, §2, §3

[4] = system: pIRES2-EGFP (5308 pb) plasmid DNA; design: method as in PMID 24732792, PMID 3707609; conditions: cited from earlier work
[5] = Distribution coefficient (logP7.4), n-octanol-water shake-flask; assay type: physicochemical; conditions: n-octanol / buffered saline pH 7.4, shake-flask
Procedure: Distribution coefficient (logP7.4). The n-octanol-water coefficients of the complexes were determined using a shake-flask method, as previously reported. Briefly, buffered-saline distilled water (100 mL, phosphate buffer [PO4^3−] = 10 mM, [NaCl] = 0.15 M, pH 7.4) and n-octanol (100 mL) were shaken together for 72 h to allow for saturation of both phases. Approximately 1 mg of the complexes was dissolved in 5 mL of the aqueous phase and 5 mL of the organic phase was added, mixing them for 10 min. The resulting emulsion was centrifuged to separate the phases. The concentration of the compounds in each phase was determined using UV-vis absorbance spectroscopy. The logP7.4 was defined as log{[compound(organic)]/[compound(aqueous)]}.

[6] = system: ct-DNA (calf thymus DNA); design: method as in PMID 20926136; conditions: cited from earlier work
[7] = system: pIRES2-EGFP (5308 pb) plasmid DNA; assay: Gel electrophoretic mobility of plasmid DNA; assay type: binding; conditions: metal-to-base pair ratios 0.5, 1, 2; 0.8% agarose gel
Procedure: Adducts with pIRES2-EGFP (5308 pb) plasmid DNA (Catalog #6029-1) were prepared by adding the required volume of a freshly prepared solution of metal complexes in MilliQ water. The concentration of pIRES2-EGFP in the reaction mixture was 117 ng/µL, and the complexes’ concentration was varied to give different metal-to-base pair stoichiometries (0.5, 1 and 2). The mobility of the metal complex-treated pIRES2-EGFP samples was analysed by gel electrophoresis on a 0.8% (w/v) agarose gel (Boehringer-Mannheim, Mannheim, Germany) at […] at 25 °C in Tris-acetate/EDTA buffer. The gel was stained for 30 min in […] (w/v) ethidium bromide and the bands were visualised with a UVP gel scanner.
In addition, the interaction of both complexes with DNA was also studied by their ability to modify the electrophoretic mobility of the pIRES2-EGFP (5308 pb) plasmid DNA and compared to cisplatin (Figure 7).

[8] = system: A2780/R; design: method as in PMID 19937669; conditions: cisplatin-resistant ovarian cancer cell line; cited from earlier work
[9] = system: A2780/S; design: method as in PMID 19937669; conditions: ovarian cancer cell line; cited from earlier work
[10] = system: ct-DNA (calf thymus DNA); assay: ct-DNA binding constant by UV-vis titration (Benesi-Hildebrand); conditions: complex 20 μM, ct-DNA 0-100 μM, Tris-HCl pH 7.2
Procedure: A ctDNA solution was prepared at 1 mg/mL in tris (tris(hydroxymethyl)aminomethane)/HCl (0.1 M, pH 7.2). Then, the purity of the ctDNA was checked, recording its spectra and calculating the absorption ratio between 260 and 280 nm. This experiment also provides the means to calculate the concentration of ctDNA using the Beer–Lambert formula, with the extinction coefficient of 6600 M^−1cm^−1. Every experiment was corrected with a baseline of the buffer and the corresponding concentration of dimethylsulfoxide. The addition of DNA solution was performed in both assay and reference cuvettes. Then, the binding constant was calculated using the modified Benesi–Hildebrand equation. Kb is the binding constant, εf, εa, and εb are the extinction coefficients for the free compound, the apparent coefficient (calculated as the ratio of the absorbance and the concentration of the compound in the experiment), and the compound–DNA complex, respectively. […]
The binding capabilities of [Cu{Au(Spy)(PTA)}2]PF6 (1) and [Au(Spy)(PTA)] were estimated towards […] by recording the electronic absorption spectra throughout their interaction. The absorbance measurements were performed by successive additions of a DNA stock solution (10, 20, 30, 40 up to 100 μL) which afforded the final concentration of ct-DNA (from 0 to 100 μM) while maintaining the concentration of the complexes (20 μM). […]

[11] = system: differentiated Caco-2/PD7 cells; assay: Cell viability of differentiated (enterocyte-like) Caco-2/PD7 cells; assay type: cell-based, human
Procedure: For cell viability studies of differentiated (enterocyte-like) cells, Caco-2/PD7 cells were seeded on 96-well plates at a density of 4 × 10^3 cells/well and incubated for approximately 10–15 days, changing the culture medium every 3 days, up to reaching confluence—the moment in which the cells were treated with the complexes at concentrations equal to their mean IC50 and 2 × IC50 values.
It is well known that the Caco-2 cell line undergoes spontaneous differentiation into enterocytic-like cells when it reaches confluency. As a result, these cells become polarised, expressing apical and basolateral surfaces with established tight junctions. This allowed for the evaluation of the cytotoxic impact of the complexes on differentiated cells (acting as noncarcinogenic) and a comparison with the viability of undifferentiated cells. Thus, the toxicity of the two heteronuclear compounds has been studied by cell viability experiments by treatment of Caco-2/PD7 cells after differentiation with complexes 1 and 2 at the corresponding concentrations equivalent to IC50 and 2 × IC50 values for 72 h. The results expressed as the % of cell viability observed after treatment with the complexes (or 100% for non-treated control cells) are summarised in Figure S16 (Supplementary Materials). […] However, the cell viability is around 90% even when the cells are treated with double the IC50 concentration.

## CC(=O)OC[C@H]1O[C@@H]([S-])[C@H](OC(C)=O)[C@@H](OC(C)=O)[C@@H]1OC(C)=O.CCP(CC)CC.[Au+] [Auranofin, reference compound]
[1]
  IC50: 2100 ± 400 nM
[2]
  Cell death stage after treatment: most cells being found in late-stage apoptosis and necrosis
[3]
  IC50: 1800 ± 100 nM
[4]
  Reactivity with DNA: lack of reactivity
[5]
  logP: −2.53

## CC[n+]1c(-c2ccccc2)c2cc(N)ccc2c2ccc(N)cc21 [EB, ethidium bromide]
[6]
  DNA binding constant Kb: 1.23(±0.07) × 10^5 M^−1

## c1ccc([S][Au][P]23CN4CN(CN(C4)C2)C3)nc1 [[Au(Spy)(PTA)]]
[1]
  IC50: 2030 ± 20 nM
[7]
  Effect on electrophoretic mobility of plasmid DNA: does not affect the mobility
[8]
  IC50: 8200 nM
[9]
  IC50: 9600 nM
[10]
  DNA binding constant Kb: 90600 M⁻¹
[3]
  IC50: 2640 ± 250 nM

## N.N.[Cl][Pt][Cl] [cisplatin]
[7]
  Effect on electrophoretic mobility of plasmid DNA: greatly alters the electrophoretic mobility

## [Zn{Au(PTA)(Spy)}2]Cl2 [compound 3]
[11]; differentiated Caco-2/PD7, concentration = 2 × IC50, 72 h
  Cell viability of differentiated Caco-2 cells at 2 × IC50: 93.18 ± 11.99%
[11]; differentiated Caco-2/PD7, concentration = IC50, 72 h
  Cell viability of differentiated Caco-2 cells at IC50: 98.87 ± 21.63%
